Where a SMILES comes first, the peptide text is derived from it.
Target: T1, P/CAF bromodomain (Homo sapiens, UniProt Q92831, P804A/P805A)
T1 construct: poly-His (N, cleaved yes); made in house; host or cells: Escherichia coli BL21(DE3)
T1 sequence (Q92831 719-832 P804A/P805A): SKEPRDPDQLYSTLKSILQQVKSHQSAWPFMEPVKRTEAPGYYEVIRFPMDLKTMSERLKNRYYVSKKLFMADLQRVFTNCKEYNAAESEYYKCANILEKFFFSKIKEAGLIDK
Assay: Peptide competition assay with biotinylated wild type Tat AcK50 peptide (western blot)
Type: binding
Details: protein ~10 μM, wild type:mutant peptide 1:2
Experimental: Peptide binding assay. […] Streptavidin agarose (10 μL) was added to mixture and the beads were washed twice in the Tris buffer with 500 mM NaCl and 0.1% NP-40. Proteins were eluted from the argarose beads in SDS buffer and separated on a 14% SDS-PAGE. The resolved proteins were transferred onto nitrocellulose membrane (Pharmacia), and the membrane was blocked overnight with 5% non-fat milk in washing buffer of 20 mM Tris, pH 7.5, plus 150 mM NaCl and 0.1% Tween-20 at 4° C. Western blotting was performed with anti-GST antibody (Sigma) and goat anti-rabbit IgG conjugated with horseradish-peroxidase (Promega) and developed by chemiluminescence. Peptide competition experiments were performed by incubating various non-biotinylated and mutant Tat peptide with the P/CAF bromodomain and the biotinylated and wild type Tat peptide. The molar ratio of the wild type and mutant Tat peptides in the mixture were kept at 1:2. The binding results were analyses by using the procedure as described above.

## CC(=O)NCCCC[C@H](NC(=O)[C@H](CCCCN)NC(=O)[C@H](CS)NC(=O)[C@H](Cc1ccc(O)cc1)NC(=O)[C@H](CS)NC(=O)[C@H](CC(N)=O)NC(=O)[C@@H](N)[C@@H](C)O)C(=O)N[C@@H](CS)C(=O)N[C@@H](CS)C(=O)N[C@@H](Cc1ccccc1)C(=O)N[C@@H](Cc1c[nH]cn1)C(=O)O [Tat AcK 28 peptide, TNCYCK-AcK-CCFH] (H-TNCYCKK(Ac)CCFH-OH)
  competition with / binding relative to Tat AcK50 peptide (qualitative): almost no competition
